Results as given in patent US5668134A, “Method for preventing or reducing photosensitivity and/or phototoxicity reactions to medications” (priority 1994, dated 1997).
Where “and” joins values, the source holds several entries; their conditions need not be identical. Equal entries are not always repeated. Structures can show the parent of a compound that is named as a salt.

Key:
[1] = system: skin of healthy volunteers; assay: Example 5: Minimum Erythema Dose with UVA radiation, morning vs evening dosing; format: in vivo, human; details: for phototoxicity of evening versus morning dosing: UVA exposure 16 hours vs 2 hours after dosing; for DELAYED MED / IMMEDIATE MED / MED, 0 H / MED, 3 H / MED, 6 H / MED, 24 H / MED, 48 H / MED, 72 H / CHANGE BASELINE, delayed MED / CHANGE BASELINE, immediate MED: individual subjects; for MED, 0 H: 0 H post-radiation; for MED, 3 H: 3 H post-radiation; for MED, 6 H: 6 H post-radiation; for MED, 24 H: 24 H post-radiation; for MED, 48 H: 48 H post-radiation; for MED, 72 H: 72 H post-radiation; for CHANGE BASELINE, delayed MED / CHANGE BASELINE, immediate MED: baseline minus posttreatment
Method: This study describes a randomized, single site, double-blind, two treatment, two period, two sequence, cross-over clinical pharmacology study which was performed according to FDA regulations in 27 healthy normal volunteers with fair skin that could easily burn when exposed to sunlight, to assess the photosensitivity and/or phototoxicity potential of oral 400 mg lomefloxacin hydrochloride (MAXAQUIN®) administered once daily for 4 consecutive days either in the morning (morning dose group), as described hereinbelow, or in the early evening (evening dose group), as described hereinbelow. Irradiation and evaluation of irradiated sites began at 2 hours after the final morning dose of lomefloxacin HCl for the morning dosing group, and began 16 hours after the final evening dose of lomefloxacin HCl for the evening dosing group.
"Baseline MED" was defined as the lowest dose of UVA radiation alone, or UVA and UVB radiation, that produced a minimal perceptible erythema filling a 1 cm^2 patch of skin 24 hours post radiation.
"Delayed MED" was defined as the lowest dose of UVA radiation alone, or UVA and UVB radiation, that produced a minimal perceptible erythema filling a 1 cm^2 patch of skin, when testing the area 24, 48 and 72 hours post radiation.
"Immediate MED" was defined as the lowest dose producing minimal perceptible erythema filling a 1 cm^2 patch of skin when testing the area 0, 3, and 6 hours post radiation.
After all baseline procedures, including determination of baseline MEDUVA and MEDUVA+UVB values 24 hours post-radiation, were completed, all subjects started Study Day 1 of Treatment Period 1 with an evening dose of study medication, and completed this phase of the treatment regime with a morning dose of study medication on Study Day 5. Two hours after the final morning dose, and 16 hours after the last evening dose, a randomly selected site composed of six patches of skin, each with an area of one square centimeter, on the back or buttock of the subject was irradiated with incremental amounts of energy. Immediately following irradiation (0 hour), and at 3, 6, 24, 48 and 72 hours following irradiation, each skin patch area was evaluated to determine the MEDs, and assess the severity of skin reaction using a five-grade system, as described hereinbelow. The lowest of the MEDs determined at 0, 3 and 6 hours post-radiation were referred to as immediate MEDs, and the lowest of the MEDs determined at 24, 48 and 72 hours post-radiation were referred to as delayed MEDs.
The source of radiation employed was an Oriel (Santa Monica, Calif.) Xenon Arc 1000 watt solar simulator, with the following filters: WG320 filter (1 mm thick, emitting full spectrum UVA and UVB radiation), WG335 filter (3 mm thick, emitting almost exclusively UVA radiation) or UG11 filter (to filter infrared radiation).
For predrug exposure MED determination, 2 sets each with six 1 cm^2 patches on the back or buttocks were irradiated with increasing doses of UVA and UVB radiation, and UVA radiation alone, up to 7 days prior to beginning of drug treatment. With respect to UVA light source, irradiation began at 5 J/cm^2, and was increased by increments of 5 J/cm^2 using a different skin patch for each exposure. The maximum radiation dose was 30 J/cm^2. Subjects with MED greater than 30 J/cm^2 were excluded from the study. […] A different skin patch was used for each exposure.
Two hours after the administration of the last dose of Treatment Period 1 (a.m. dose), the two randomly selected sites on each subject's back or buttocks were exposed one to UVA and UVB radiation, and one to UVA radiation alone. In order to protect the subjects from excessive radiation, as well as assess the true Minimum Erythema Dose (MED), the posttreatment irradiation doses for each subject was adjusted in accordance with their pretreatment MEDs. The following table was used to determine each subject's minimum and maximum posttreatment radiation dose: […]

[2] = system: patients; assay: Clinical trials, adverse events; format: in vivo, human
Text: Photosensitivity and/or phototoxicity reactions have been reported in clinical trials of lomefloxacin HCl to varying degrees. […] These photosensitivity and/or phototoxicity reactions have also occurred in subjects exposed to shaded or diffuse light, including exposure through glass.
In clinical trials, most of the adverse events reported were mild to moderate in severity and transient in nature. During these clinical investigations, 2869 patients received MAXAQUIN®. In 2.6% of the patients, lomefloxacin was discontinued because of adverse events, primarily involving the gastrointestinal system (0.7%), skin (1.0%), or central nervous system (0.5%). The adverse clinical events with the highest incidence (≥1%) in patients, regardless of relationship to drug, were nausea (3.7%), headache (3.2%), photosensitivity (2.4%), dizziness (2.3%), and diarrhea (1.4%).

[3] = Serum protein binding; format: in vitro ADME
[4] = system: skin of healthy volunteers; details: in vivo
Method: The number of skin patches with edema, or local swelling of the skin surface, were also counted. MEDs were measured separately for UVA and UVB radiation, and for UVA radiation alone. The baseline MED was defined in the manner described hereinabove. The 24 hour evaluation was allowed to be performed in the morning of Study Day 1. Severity of reactions causing edema and/or blisters were graded under the following grading system:
Severity was assessed by comparing the numbers of subjects with responses graded as 2 (edema) or 3 (blisters).

[5] = mean, UVA, a.m. dosing, p=0.002
[6] = regardless of relationship to drug

CCn1cc(C(=O)O)c(=O)c2cc(F)c(N3CCNC(C)C3)c(F)c21 (racemic) [lomefloxacin HCl, monohydrochloride salt of (±)-1-ethyl-6,8-difluoro-1,4-dihydro-7-(3-methyl-1-piperazinyl)-4-oxo-3-quinolinecarboxylic acid]
phototoxicity of evening versus morning dosing [1]: less sensitive to light | phototoxicity of evening versus morning dosing ([1]; listed as MAXAQUIN®): significantly less phototoxic | mean change of delayed MEDUVA, a.m. versus p.m. ([1]; in vivo): statistically significant difference | treatment effect on delayed MEDUVA, conservative analysis ([1]; in vivo): statistically significant treatment effect | DELAYED MED ([1]; UVA, a.m. dosing): 10.000 J/cm^2 and 20.000 J/cm^2 and 15.000 J/cm^2 and 30.000 J/cm^2 and 25.000 J/cm^2 | IMMEDIATE MED ([1]; UVA, a.m. dosing): 15.000 J/cm^2 and 20.000 J/cm^2 and 30.000 J/cm^2 and 25.000 J/cm^2 | MED, 0 H ([1]; UVA, a.m. dosing): 25.000 J/cm^2 and 30.000 J/cm^2 and 15.000 J/cm^2 | MED, 3 H ([1]; UVA, a.m. dosing): 15.000 J/cm^2 and 20.000 J/cm^2 and 25.000 J/cm^2 | MED, 6 H ([1]; UVA, a.m. dosing): 15.000 J/cm^2 and 20.000 J/cm^2 and 30.000 J/cm^2 and 25.000 J/cm^2 | MED, 24 H ([1]; UVA, a.m. dosing): 10.000 J/cm^2 and 20.000 J/cm^2 and 15.000 J/cm^2 and 30.000 J/cm^2 and 25.000 J/cm^2 | MED, 48 H ([1]; UVA, a.m. dosing): 15.000 J/cm^2 and 25.000 J/cm^2 and 30.000 J/cm^2 and 20.000 J/cm^2 | MED, 72 H ([1]; UVA, a.m. dosing): 15.000 J/cm^2 and 25.000 J/cm^2 and 20.000 J/cm^2 and 30.000 J/cm^2 | CHANGE BASELINE, delayed MED ([1]; UVA, a.m. dosing): 20.000 J/cm^2 and 5.000 J/cm^2 and 10.000 J/cm^2 and -5.000 J/cm^2 | CHANGE BASELINE, immediate MED ([1]; UVA, a.m. dosing): 15.000 J/cm^2 and 5.000 J/cm^2 and 10.000 J/cm^2 and -5.000 J/cm^2 | DELAYED MED ([1]; UVA, p.m. dosing): 30.000 J/cm^2 and 25.000 J/cm^2 and 20.000 J/cm^2 | IMMEDIATE MED ([1]; UVA, p.m. dosing): 30.000 J/cm^2 and 25.000 J/cm^2 | MED, 0 H ([1]; UVA, p.m. dosing): 30.000 J/cm^2 and 25.000 J/cm^2 | MED, 3 H ([1]; UVA, p.m. dosing): 30.000 J/cm^2 | MED, 6 H ([1]; UVA, p.m. dosing): 30.000 J/cm^2 and 25.000 J/cm^2 | MED, 24 H ([1]; UVA, p.m. dosing): 30.000 J/cm^2 and 25.000 J/cm^2 | MED, 48 H ([1]; UVA, p.m. dosing): 30.000 J/cm^2 and 20.000 J/cm^2 and 25.000 J/cm^2 | MED, 72 H ([1]; UVA, p.m. dosing): 30.000 J/cm^2 and 25.000 J/cm^2 | CHANGE BASELINE, delayed MED ([1]; UVA, p.m. dosing): -5.000 J/cm^2 and 0.000 J/cm^2 and 5.000 J/cm^2 | CHANGE BASELINE, immediate MED ([1]; UVA, p.m. dosing): -5.000 J/cm^2 and 5.000 J/cm^2 and 0.000 J/cm^2 | DELAYED MED, mean ([1]; mean, UVA, a.m. dosing): 20.000 J/cm^2 | IMMEDIATE MED, mean ([1]; mean, UVA, a.m. dosing): 19.615 J/cm^2 | MED, 0 H, mean ([1]; mean, UVA, a.m. dosing): 25.500 J/cm^2 | MED, 3 H, mean ([1]; mean, UVA, a.m. dosing): 20.833 J/cm^2 | MED, 6 H, mean ([1]; mean, UVA, a.m. dosing): 19.615 J/cm^2 | MED, 24 H, mean ([1]; mean, UVA, a.m. dosing): 20.385 J/cm^2 | MED, 48 H, mean ([1]; mean, UVA, a.m. dosing): 22.692 J/cm^2 | MED, 72 H, mean ([1]; mean, UVA, a.m. dosing): 23.077 J/cm^2 | CHANGE BASELINE, delayed MED, mean [1, 5]: 6.5 J/cm^2 and 6.538 J/cm^2 | CHANGE BASELINE, immediate MED, mean [1, 5]: 6.923 J/cm^2 and 6.9 J/cm^2 | DELAYED MED, mean ([1]; mean, UVA, p.m. dosing): 27.917 J/cm^2 | IMMEDIATE MED, mean ([1]; mean, UVA, p.m. dosing): 28.750 J/cm^2 | MED, 0 H, mean ([1]; mean, UVA, p.m. dosing): 28.333 J/cm^2 | MED, 3 H, mean ([1]; mean, UVA, p.m. dosing): 30.000 J/cm^2 | MED, 6 H, mean ([1]; mean, UVA, p.m. dosing): 28.750 J/cm^2 | MED, 24 H, mean ([1]; mean, UVA, p.m. dosing): 28.333 J/cm^2 | MED, 48 H, mean ([1]; mean, UVA, p.m. dosing): 28.182 J/cm^2 | MED, 72 H, mean ([1]; mean, UVA, p.m. dosing): 28.500 J/cm^2 | CHANGE BASELINE, delayed MED, mean ([1]; mean, UVA, p.m. dosing, p=1.000): 0.000 J/cm^2 | discontinued because of adverse events ([2]; 2869 patients): 2.6% | discontinued because of adverse events, central nervous system ([2]; 2869 patients): 0.5% | discontinued because of adverse events, gastrointestinal system ([2]; 2869 patients): 0.7% | discontinued because of adverse events, skin ([2]; 2869 patients): 1.0% | incidence of photosensitivity ([2]; clinical trials): 2.4% | photosensitivity and/or phototoxic reactions ([2]; patients exposed to sunlight or artificial ultraviolet light): Moderate to severe photosensitivity and/or phototoxic reactions have occurred | incidence of diarrhea [2, 6]: 1.4% | incidence of dizziness [2, 6]: 2.3% | incidence of headache [2, 6]: 3.2% | incidence of nausea [2, 6]: 3.7% | fraction unbound [3]: ~0.9 | severity of UVA+UVB radiation-induced photoreactions versus baseline [4]: no change | subjects with edema or blisters on the sites of radiation, UVA [4]: sixty-nine
